Test results from patent publication US20130165771A1 (priority 2011, published 2013).

Experiments:
[1] = test system: eye with choroidal neovascularization (CNV); experiment: FITC-dextran fundus angiography on the eye with choroidal neovascularization (Example 4); format: in vivo; conditions: pigmented rabbit; CNV induced by sub-retinal vascular growth factors; FITC-dextran 70 kDa, 25 mg/ml, 0.3 ml i.v.
Experimental: Materials and Methods: The choroidal neovascularization (CNV) was induced by sub-retinal injection of vascular growth factors in the eye of pigmented rabbit. […] The volume of 0.3 ml of the solution was injected through marginal vein of the rabbit.

[2] = test system: eye with choroidal neovascularization complicated with sub-retinal hemorrhage; experiment: Comparison on the eye with CNV complicated with sub-retinal hemorrhage (Example 8); format: in vivo; conditions: rabbit; Na-fluorescein 5 mg/kg i.v.; FITC-dextran 70 kDa 2.5 mg/kg i.v.; same rabbit
Experimental: Materials and Methods: the choroidal neovascularization in the rabbit eye was induced by sub-retinal injection of vascular growth factors (VGF). The sub-retinal hemorrhage was caused by the pathological changes of the newly grown blood vessels underneath of the retinal. […] The Na-fluorescence fundus angiography and the FITC-dextran fundus angiography, were performed on the same rabbit with one-day interval between these two fundus angiographies.

[3] = test system: eye with choroidal neovascularization complicated with retinal detachment; experiment: Comparison on the eye with CNV complicated with retinal detachment (Example 7); format: in vivo; conditions: rabbit; Na-fluorescein 5 mg/kg i.v.; FITC-dextran 70 kDa 2.5 mg/kg i.v.; same rabbit
Experimental: Materials and Methods: the choroidal neovascularization in the eye of rabbit was induced by sub-retinal injection of vascular growth factors (VGF). The complicated retinal detachment in the eye was caused by leakage of blood from the choroidal newly grown blood vessels and accumulated in the space of the sub-retinal between the detached retinal and the pigmented layer. […] The Na-fluorescence fundus angiography and the FITC-dextran fundus angiography were performed on the same rabbit with one-day interval between these two fundus angiographies.

[4] = test system: choroidal vasculature; experiment: Effective image duration of FITC-dextran fundus angiography in rabbit (Example 2); format: in vivo; conditions: Dutch Belted rabbit, single intravenous injection of FITC-dextran 70 kDa, 25 mg/ml, 0.3 ml
Experimental: The volume of 0.3 ml of the solution was injected through the marginal vein of a Dutch Belted rabbit. […] The angiograms of choroidal vasculature were captured using a regular fluorescence fundus image system (Topcon 50 VT).

[5] = test system: eyes with choroidal neovascularization (CNV); experiment: Comparison of FITC-dextran with Na-fluorescein fundus angiography on eyes with CNV (Example 6); format: in vivo; conditions: rabbit CNV; Na-fluorescein 5 mg/kg i.v.; FITC-dextran 70 kDa 2.5 mg/kg i.v.
Excerpt: Materials and Methods: The choroidal neovascularization (CNV) in rabbit eye was induced by sub-retinal injection of vascular growth factors (VGF).

[6] = test system: eye with CNV complicated with proliferated retinopathy and atrophy of choroidal circulation; experiment: Comparison of Na-fluorescein, ICG and FITC-dextran fundus angiography on the eye with proliferative CNV (Example 9, Table 1); format: in vivo, rabbit; conditions: for morphological detail of the CNV, proliferated retinopathy and atrophy of choroidal circulation on the angiogram: Dutch-belted rabbit, same eye, Na-fluorescein 5 mg/kg, ICG 2.5 mg/kg, FITC-dextran 70 kDa 2.5 mg/kg i.v.; for Clarity of angiography / Duration: Choroidal neovascularization / Duration: Normal Choroidal vasculatures / Duration: Normal retinal vessels / Duration: Retinal neovascularization / Neovascularization complex: Table 1
Excerpt: Materials and Methods: the choroidal neovascularization in the eye of Dutch-belted rabbit was induced by sub-retinal injection of vascular growth factors (VGF). The proliferated retinopathy of the choroidal neovascularization membrane and the atrophy of choroidal circulation were the complications of the CNV, occurring at the late stage of the disease. […] The fundus angiograms of IGC were obtained using the fundus image system (Topcon 50 VT) at wavelength of 800 nm.

[7] = test system: eye with retinal detachment; experiment: FITC-dextran fundus angiography in the eye with retinal detachment (Example 3); format: in vivo; conditions: pigmented rabbit; detachment induced by sub-retinal Healon; FITC-dextran 70 kDa, 25 mg/ml, 0.3 ml i.v.
Experimental: Materials and Methods: The retinal detachment was induced by sub-retinal injection of Healon in the eye of pigmented rabbit. […] The volume of 0.3 ml of the solution was injected intravenously through the marginal vein of the rabbit.

[8] = test system: retinal vasculature and choroidal vasculature; experiment: FITC-dextran fundus angiography in normal rabbit eyes (Example 1); format: in vivo; conditions: naive rabbit; FITC-dextran 70 kDa, 25 mg/ml, 0.3 ml intravenously
Excerpt: Materials and Methods: The naive rabbits with bodyweight of 1.8-2.5 kilograms were used for this test.

[9] = test system: retinal pigmental endothelial cells; conditions: reported (Kodjikian, et al, 2005; Giuseppe, et al, 2008); cited from earlier work
[10] = test system: serum proteins; conditions: in the blood stream; cited from earlier work
[11] = test system: fundus; conditions: following intravenous injection of the dye; clinical practice; cited from earlier work
[12] = test system: eye with retinal neovascularization; experiment: Comparison of FITC-dextran with Na-fluorescein fundus angiography on the eye with retinal neovascularization (Example 10); conditions: monkey eye with retinal neovascularization; following injection of the dye
Experimental: Materials and Methods: Retinal neovascularization in the eye of the monkey was induced by sub-retinal administration of vascular growth factors (VGF). For Na-fluorescence fundus angiography, the 0.5% of Na-fluorescein solution was injected through the antecubital vein at the dose of 5 mg/kg of the body weight. […] The fundus angiograms were obtained using a regular fluorescence fundus system (Topcon 50 VT).

Compound | visualization of new blood vessels grown from choroidal [1] | morphological detail of the CNV and the hemorrhage on the angiogram [2] | morphological detail of the CNV and the retinal detachment on the angiogram [3] | effective image duration [4] | morphological detail of the CNV on the angiogram [5] | morphological detail of the CNV, proliferated retinopathy and atrophy of choroidal circulation on the angiogram [6] | Clarity of angiography [6] | Duration: Choroidal neovascularization [6] [h] | Duration: Normal Choroidal vasculatures [6] [h] | Duration: Normal retinal vessels [6] [h] | Duration: Retinal neovascularization [6] [h] | Neovascularization complex [6] | quality of angiograms of the eye with retinal detachment [7] | visualization of retinal vasculature and choroidal vasculature in a same fundus angiogram [8] | toxic effects on retinal pigmental endothelial cells and outer portion of the retinal tissues [9] | molecules bound to serum proteins [10] | best effective image duration [11] | effective image duration [12] | Duration: Retinal neovascularization ([6]; then leak out) [h] | Duration: Normal retinal vessels ([6]; then watch out)
fluorescein isothiocyanate dextran [FITC-Dextran] | able to visualize the new blood vessels grown from choroidal | able to provide the morphological nature of the newly grown vasculature complicated with retinal hemorrhage | the morphological nature of the newly grown vasculature and the detachment of the retina were visualized | up to 2 hours | detailed morphological information of the newly grown vasculature was revealed | able to visualize the newly grown blood vessels with details of the CNV | best | >1 | >1 | >1 | >1 | best | super clear and high resolution angiograms | able to visualize both retinal vasculature and choroidal vasculature |  |  |  |  |  | 
CC1(C)C(/C=C/C=C/C=C/C=C2\N(CCCCS(=O)(=O)O)c3ccc4ccccc4c3C2(C)C)=[N+](CCCCS(=O)(=O)[O-])c2ccc3ccccc3c21 [ICG, indocyanine green] |  |  |  |  |  | able to visualize the structure of the CNV and the injured choroidal vascular networks | poor | 0.05 to 0.083 | 0.05 to 0.083 |  |  | good |  |  | toxic effects | 98% |  |  |  | 
O=C([O-])c1ccccc1-c1c2ccc(=O)cc-2oc2cc([O-])ccc12.[Na+].[Na+] [Na-Fluorescein, sodium fluorescein] |  | without the morphological details of the CNV and the hemorrhage | without the morphological details of the CNV and the detachment |  | without the morphological detail of the CNV | without morphological details of the CNV | good |  |  |  |  | poor |  |  |  | 70-80% | about 5 minutes | about two | ≤ 0.00278 | 2-5 minutes,
